Data from patent publication US12144864B2, “Tubulysins and protein-tubulysin conjugates” (Regeneron Pharmaceuticals, Inc., priority 2018, dated 2024).
pIC50: −log10 of the molar value. Like-named read-outs stand apart in the source and are kept apart here.

Experiments:
T47D cells = assay: Cell-based killing assay of payloads (CellTiter-Glo), T47D cells; parameters: species or system human; settings: 5-day incubation; for pIC50: Homo sapiens, T47D, 120 h; for T47D % Kill: at maximum concentration tested
Method: (§1) To test the ability of the disclosed tubulysin payloads to kill human cell lines, an in vitro cytotoxicity assay was performed. In vitro cytotoxicity of the disclosed payloads, as well as reference compounds, were evaluated using the CellTiter-Glo Assay Kit (Promega, Cat #G7573), in which the quantity of ATP present is used to determine the number of viable cells in culture. For the assay, C4-2, HEK293, or T47D cells were seeded at 4000 cells/well on Nunclon white 96-well plates in complete growth medium (DME high glucose:Ham's F12 at 4:1, 10% FBS, 100 units/ml Penicillin, 100 ug/ml streptomycin, 53 ug/ml glutatmine, 10 ug/ml insulin, 220 ng/ml biotin, 12.5 pg/ml T3, 12.5 ug/ml Adenine, 4 ug/ml transferrin for C42 cells; DME high glucose, 10% FBS, 100 units/ml Penicillin, 100 ug/ml streptomycin, 53 ug/ml glutatmine for HEK293; RPMI, 10% FBS, 100 units/ml Penicillin, 100 ug/ml streptomycin, 53 ug/ml glutatmine, 10 ug/ml insulin, 10 mM HEPEs, 200 nM Sodium Pyruvate for T47D cells) and grown overnight at 37° C. in 5% CO2. For cell viability curves, 1:3 serially diluted payloads were added to the cells at final concentrations ranging from 100 nM to […], including a no treatment control group, and were then incubated for 5 days. After the 5-day incubation, cells were incubated at room temperature with 100 μL of CellTiter-Glo reagents for 10 minutes. Relative luminescence units (RLU) were determined on a Victor plate reader (PerkinElmer). The IC50 values were determined from a four-parameter logistic equation over a 10-point response curve (GraphPad Prism). All IC50 values are expressed in molar (M) concentration. The percent cell killing (% kill) at the maximum concentration tested was estimated from the following formula (100−% viable cells). Averages±standard deviation (SD) are included where replicate experiments were performed.

C4-2 cells = assay: Cell-based killing assay of payloads (CellTiter-Glo), C4-2 cells; parameters: species or system human; settings: 5-day incubation; for pIC50: Homo sapiens, C4-2, 120 h, average ± SD where replicates; for C4-2 % Kill: at maximum concentration tested (100 − % viable cells)
In short: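 Viability readout is CellTiter-Glo luminescence after a 5-day exposure to 10-point, threefold-diluted payloads spanning 100 nM–[…], following overnight attachment of 4000 cells/well. Four-parameter logistic fit gives IC50 in M; % kill taken at highest concentration tested.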

HEK293 cells = assay: Cell-based killing assay of payloads (CellTiter-Glo), HEK293 cells; parameters: species or system human; settings: 5-day incubation; for pIC50: Homo sapiens, HEK293, 120 h; for HEK293 % Kill: at maximum concentration tested
Method: as §1

HCT15 cells = assay: cells; assay type: cell-based, human; settings: HCT15 cells; for HCT-15 + verapamil % Kill / HCT-15 % Kill: maximum % cell killing
In short: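 Five-day exposure of 1000 HCT15 cells/well to threefold payload dilutions, run both plus and minus verapamil (5 ug/mL) in RPMI with 10% FBS. ATP luminescence (CellTiter-Glo) gives viability; four-parameter logistic fit of 10 points yields IC50, and 100 − % viable at highest dose gives % kill.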

[1] = with 5 ug/mL Verapamil, read-out: HCT-15 + verapamil IC50
[2] = Homo sapiens, HCT-15, without Verapamil, read-out: HCT-15 IC50

Structure (SMILES) | pIC50 (T47D cells) | T47D % Kill (T47D cells) | pIC50 (C4-2 cells) | C4-2 % Kill (C4-2 cells) | pIC50 (HEK293 cells) | HEK293 % Kill (HEK293 cells) | HCT-15 + verapamil % Kill (HCT15 cells; with 5 ug/mL Verapamil) | pIC50 (HCT15 cells; [1]) | HCT-15 % Kill (HCT15 cells; without Verapamil) | pIC50 (HCT15 cells; [2])
C#CCCCON(C(=O)[C@@H](NC(=O)[C@H]1CCCCN1C)[C@@H](C)CC)[C@H](C[C@@H](OC(C)=O)c1nc(C(=O)N[C@@H](Cc2ccc(F)cc2)C[C@H](C)C(=O)O)cs1)C(C)C [Vf, (2S,4R)-4-({2-[(1R,3R)-1-(Acetyloxy)-4-methyl-3-[(2S,3S)-3-methyl-2-{[(2R)-1-methylpiperidin-2-yl]formamido}-N-(pent-4-yn-1-yloxy)pentanamido]pentyl]-1,3-thiazol-4-yl}formamido)-5-(4-fluorophenyl)-2-methylpentanoic acid] | 9.40 | 68% | 9.05 | 90% | 9.18 | 83.8% | 98% | 9.43 | 96.5% | 8.47
CCCCCCON(C(=O)[C@@H](NC(=O)[C@H]1CCCCN1C)[C@@H](C)CC)[C@H](C[C@@H](OC(=O)NCC)c1nc(C(=O)N[C@@H](Cc2ccc(O)cc2)C[C@H](C)C(=O)O)cs1)C(C)C [VIb, (2S,4R)-5-(4-hydroxyphenyl)-4-(2-((6R,8R)-8-isopropyl-9-((2S,3S)-3-methyl-2-((R)-1-methylpiperidine-2-carboxamido)pentanoyl)-4-oxo-5,10-dioxa-3,9-diazahexadecan-6-yl)thiazole-4-carboxamido)-2-methylpentanoic acid] | 7.87 | 76.2% | 7.92 | 96.5% | 7.69 | 75.4% | 97.8% | 8.54 | 54.7% | < 7.30
CC[C@H](C)[C@H](NC(=O)[C@H]1CCCCN1C)C(=O)N(OCCCOCc1ccc(N)cc1)[C@H](C[C@@H](OC(C)=O)c1nc(C(=O)N[C@@H](Cc2ccc(O)cc2)C[C@H](C)C(=O)O)cs1)C(C)C [Vj, (2S,4R)-4-(2-((8R,10R)-1-(4-Aminophenyl)-8-isopropyl-7-((2S,3S)-3-methyl-2-((R)-1-methylpiperidine-2-carboxamido)pentanoyl)-12-oxo-2,6,11-trioxa-7-azatridecan-10-yl)thiazole-4-carboxamido)-5-(4-hydroxyphenyl)-2-methylpentanoic acid] | < 7.00 | 14.6% | 7.27 | 68.5 ± 39.2% | < 7.00 | 4.7% | 77.4% | 7.41 | −3.8% | < 7.00
C#CCCCON(C(=O)[C@@H](NC(=O)[C@H]1CCCCN1C)[C@@H](C)CC)[C@H](C[C@@H](OC(C)=O)c1nc(C(=O)N[C@@H](Cc2ccc(F)cc2)CC(C)(C)C(=O)O)cs1)C(C)C [Vd, (4S)-4-({2-[(1R,3R)-1-(Acetyloxy)-4-methyl-3-[(2S,3S)-3-methyl-2-{[(2R)-1-methylpiperidin-2-yl]formamido}-N-(pent-4-yn-1-yloxy)pentanamido]pentyl]-1,3-thiazol-4-yl}formamido)-5-(4-fluorophenyl)-2,2-dimethylpentanoic acid] | 9.35 | 66% | 9.42 | 91.3% | 9.23 | 86.3% | 98.7% | 9.45 | 99.7% | 8.71
CCCCCCON(C(=O)[C@@H](NC(=O)[C@H]1CCCCN1C)[C@@H](C)CC)[C@H](C[C@@H](OC(=O)NCCCC)c1nc(C(=O)N[C@@H](Cc2ccc(O)cc2)C[C@H](C)C(=O)O)cs1)C(C)C [VId, (2S,4R)-5-(4-Hydroxyphenyl)-4-(2-((8R,10R)-10-isopropyl-11-((2S,3S)-3-methyl-2-((R)-1-methylpiperidine-2-carboxamido)pentanoyl)-6-oxo-7,12-dioxa-5,11-diazaoctadecan-8-yl)thiazole-4-carboxamido)-2-methylpentanoic acid] | 8.60 | 68.4% | 8.62 | 95.5 ± 2.6% | 8.28 | 78.5% | 99% | 9.32 | 78.7% | < 7.52
CC[C@H](C)[C@H](NC(=O)[C@H]1CCCCN1C)C(=O)N(CCCCc1c[nH]nn1)[C@H](C[C@@H](OC(C)=O)c1nc(C(=O)N[C@@H](Cc2ccc(N)cc2)CC(C)(C)C(=O)O)cs1)C(C)C [IVj, (S)-4-(2-((1R,3R)-3-((2S,3S)—N-(4-(1H-1,2,3-triazol-5-yl)butyl)-3-methyl-2-((R)-1-methylpiperidine-2-carboxamido)pentanamido)-1-acetoxy-4-methylpentyl)thiazole-4-carboxamido)-5-(4-aminophenyl)-2,2-dimethylpentanoic acid] | 7.75 | 79.9% | 8.15 | 94.5% | 7.75 | 75.5% | 98.4% | 8.25 | 96.4% | 8.11
C#CCCCON(C(=O)[C@@H](NC(=O)[C@H]1CCCCN1C)[C@@H](C)CC)[C@H](C[C@@H](OC(=O)NCC)c1nc(C(=O)N[C@@H](Cc2ccc(N)cc2)CC(C)(C)C(=O)O)cs1)C(C)C [VIf, (4S)-5-(4-Aminophenyl)-4-({2-[(1R,3R)-1-[(ethylcarbamoyl)oxy]-4-methyl-3-[(2S,3S)-3-methyl-2-{[(2R)-1-methylpiperidin-2-yl]formamido}-N-(pent-4-yn-1-yloxy)pentanamido]pentyl]-1,3-thiazol-4-yl}formamido)-2,2-dimethylpentanoic acid] | 9.52 | 63.2% | 9.51 | 93.9% | 9.42 | 85.6% | 98.8% | 10.07 | 99.1% | 8.69
